Test results published in PMC7881642, “Inducing secondary metabolite production of Aspergillus sydowii through microbial co-culture with Bacillus subtilis” (Microbial Cell Factories, 2021).

Assays:
[1] = molecular target: SHP1 (Homo sapiens, UniProt P29350); assay: SHP1 inhibitory activity; format: biochemical
[2] = molecular target: T1, PTP1b (Homo sapiens, UniProt P18031); assay: Protein tyrosine phosphatase 1b inhibitory assay (pNPP substrate); format: biochemical; conditions: 37 °C, pH 6.0
T1 sequence (P18031 1-435): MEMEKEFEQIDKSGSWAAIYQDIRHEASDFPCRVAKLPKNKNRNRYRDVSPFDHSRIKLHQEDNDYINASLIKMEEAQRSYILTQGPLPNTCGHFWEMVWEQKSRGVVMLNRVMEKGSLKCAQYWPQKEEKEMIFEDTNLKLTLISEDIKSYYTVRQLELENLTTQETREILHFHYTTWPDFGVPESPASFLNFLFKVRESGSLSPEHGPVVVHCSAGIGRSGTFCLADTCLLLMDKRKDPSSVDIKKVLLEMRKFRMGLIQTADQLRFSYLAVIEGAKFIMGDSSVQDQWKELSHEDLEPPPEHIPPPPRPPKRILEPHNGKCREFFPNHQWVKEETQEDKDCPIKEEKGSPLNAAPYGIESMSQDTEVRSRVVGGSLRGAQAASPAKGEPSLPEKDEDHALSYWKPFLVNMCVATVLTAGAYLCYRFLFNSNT
Description: The PTP1b inhibitory activity of the tested compounds was measured at 37 °C using p-nitrophenyl phosphate (pNPP) as the substrate. The reaction was performed in a 96-well plate (final volume of 150 μL) and incubated for 30 min in the assay buffer (50 mM citrate (pH 6.0), 0.1 M NaCl, 1 mM EDTA, and 1 mM dithiothreitol) at 37 °C. Subsequently, the reaction was terminated by the addition of 10 M NaOH and the amount of p-nitrophenyl was determined by measuring the absorbance at 405 nm.

[3] = molecular target: T2, CD45 (Homo sapiens, UniProt P08575); assay: CD45 inhibitory activity; format: biochemical
T2 sequence (P08575 26-1306): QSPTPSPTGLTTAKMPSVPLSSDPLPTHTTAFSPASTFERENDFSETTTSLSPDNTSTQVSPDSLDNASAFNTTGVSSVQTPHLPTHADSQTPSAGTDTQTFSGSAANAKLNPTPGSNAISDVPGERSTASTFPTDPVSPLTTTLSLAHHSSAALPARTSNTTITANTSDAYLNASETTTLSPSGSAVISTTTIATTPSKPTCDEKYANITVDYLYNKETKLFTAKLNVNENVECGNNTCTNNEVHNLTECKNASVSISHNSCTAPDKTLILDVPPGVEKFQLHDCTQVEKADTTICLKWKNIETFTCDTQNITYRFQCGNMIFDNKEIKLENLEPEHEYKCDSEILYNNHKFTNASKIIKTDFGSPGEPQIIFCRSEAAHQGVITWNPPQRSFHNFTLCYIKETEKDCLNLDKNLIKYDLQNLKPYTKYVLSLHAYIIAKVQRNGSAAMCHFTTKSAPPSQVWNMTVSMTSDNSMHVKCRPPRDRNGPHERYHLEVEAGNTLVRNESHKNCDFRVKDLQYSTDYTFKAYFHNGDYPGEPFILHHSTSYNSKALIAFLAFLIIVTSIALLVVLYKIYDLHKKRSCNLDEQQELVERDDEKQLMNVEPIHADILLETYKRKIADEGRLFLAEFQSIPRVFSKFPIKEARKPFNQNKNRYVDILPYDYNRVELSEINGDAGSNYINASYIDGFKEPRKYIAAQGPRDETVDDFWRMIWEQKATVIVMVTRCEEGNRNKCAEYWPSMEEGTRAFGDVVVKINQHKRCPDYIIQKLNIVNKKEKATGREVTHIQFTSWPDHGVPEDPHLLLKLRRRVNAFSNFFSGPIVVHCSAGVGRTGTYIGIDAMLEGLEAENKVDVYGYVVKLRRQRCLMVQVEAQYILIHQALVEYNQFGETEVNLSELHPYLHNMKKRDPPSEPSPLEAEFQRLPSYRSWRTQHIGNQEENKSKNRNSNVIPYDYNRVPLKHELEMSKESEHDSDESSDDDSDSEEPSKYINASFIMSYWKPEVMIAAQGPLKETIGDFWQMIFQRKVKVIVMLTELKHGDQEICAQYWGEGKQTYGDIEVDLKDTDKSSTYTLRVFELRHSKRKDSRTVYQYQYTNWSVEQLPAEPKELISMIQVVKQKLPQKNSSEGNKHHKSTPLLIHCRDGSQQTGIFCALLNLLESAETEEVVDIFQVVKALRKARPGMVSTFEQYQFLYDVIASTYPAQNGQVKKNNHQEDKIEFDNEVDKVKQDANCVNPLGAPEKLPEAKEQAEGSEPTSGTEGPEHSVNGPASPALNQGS

[4] = tested on: insulin-stimulated glucose consumption; parameters: method as in PMID 23647825; conditions: cited from earlier work
[5] = tested on: nematode; assay: anti-nematode activity
[6] = tested on: fungi; parameters: method as in PMID 23488669; conditions: cited from earlier work
[7] = tested on: B. cereus; parameters: method as in doi:10.1007/s10600-016-1885-z; conditions: cited from earlier work
[8] = tested on: S. aureus; parameters: method as in doi:10.1007/s10600-016-1885-z; conditions: cited from earlier work

Chain of SHP1 (P29350 whole entry): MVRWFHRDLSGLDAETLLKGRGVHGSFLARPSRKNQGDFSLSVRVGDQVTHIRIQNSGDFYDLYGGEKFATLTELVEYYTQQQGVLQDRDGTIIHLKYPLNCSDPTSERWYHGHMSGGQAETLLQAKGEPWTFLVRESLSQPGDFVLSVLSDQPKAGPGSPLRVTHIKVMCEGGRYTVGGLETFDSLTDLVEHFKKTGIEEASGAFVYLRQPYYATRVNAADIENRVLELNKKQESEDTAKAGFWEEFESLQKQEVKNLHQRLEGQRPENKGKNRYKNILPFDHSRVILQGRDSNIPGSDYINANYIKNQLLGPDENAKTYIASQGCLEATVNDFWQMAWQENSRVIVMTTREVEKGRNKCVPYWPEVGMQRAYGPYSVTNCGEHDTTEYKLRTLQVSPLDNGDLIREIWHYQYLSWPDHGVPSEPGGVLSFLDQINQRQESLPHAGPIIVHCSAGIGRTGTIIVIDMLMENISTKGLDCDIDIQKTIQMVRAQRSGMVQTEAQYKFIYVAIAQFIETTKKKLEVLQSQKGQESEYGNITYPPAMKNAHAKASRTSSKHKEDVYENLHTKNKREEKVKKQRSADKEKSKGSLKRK

Row | SMILES | IC50 [1] [µM] | IC50 [2] [µM] | IC50 [3] [µM] | effect on insulin-stimulated glucose consumption [4] | IC50 [5] [µM] | antifungal activity MIC [6] [mM] | MIC against B. cereus [7] | MIC against S. aureus [8]
1 | CC(C)CCCC(C)(O)c1ccc(C(=O)NC(CO)C(=O)O)cc1O (centres unmarked) [N7, Serine sydonate] | 11.68 ± 0.08 | 14.2 ± 0.21 | 16 | – | – | – | – | –
2 | CC(C)CCC[C@](C)(O)c1ccc(CO)cc1O [(S)-(+)-sydonol] | – | – | – | potentiated | – | – | – | –
3 | Cc1cc(O)cc(O)c1C(=O)O [N1, Orsellinic acid] | > 20 | > 20 | > 20 | – | – | – | – | –
4 | CC(C)C(O)CC[C@](C)(O)c1ccc(C(=O)O)cc1O (stereo partly drawn) [N3, (7S)-(−)-10-Hydroxysydonic acid] | > 20 | 15.88 ± 0.13 | > 20 | – | 50 | – | – | –
5 | C[C@@H]1CCC/C=C/C=C/[C@H](O)C[C@@H](O)C/C=C\C=C\[C@@H](O)C/C=C/C=C\C(=O)O1 [N13, Macrolactin A] | 14.6 ± 0.39 | > 20 | 17.9 | – | – | 0.04 to 0.3 | – | –
6 | CC(C)(O)CCCC(C)(O)c1ccc(C(=O)O)cc1O (stereo in doubt) [N4, (R)-(−)-Hydroxysydonic acid] | 15.72 ± 0.11 | > 20 | > 20 | – | – | – | less than 25 μM | less than 25 μM
7 | CC(C)CCC[C@](C)(O)c1ccc(C(=O)O)cc1O [N2, Sydonic acid] | 8.35 ± 0.35 | 7.97 | > 20 | – | – | – | – | –
